US20250296971A1, “GASTRIC INHIBITORY PEPTIDE RECEPTOR LIGANDS” (priority 2021, published 2025)
*1 amine or outer side, *2 acyl side, *3 side chain or, on linkers, in order; H or OH if unused. Where a SMILES comes first, the peptide text is derived from it. Bridges are numbered along the chain shown (N, C = ends). [ ]: non-standard residue; d: D form. The star is where a group is joined. X12 = O=C(O)CN1CCN(CC(=O)O)CCN(CC(=O)N[C@H](CCC(=O)NC[C@H](O)[C@@H](O)[C@H](O)[C@H](O)CO)C(=O)*)CCN(CC(=O)O)CC1; X3 = O=C(O)CN1CCN(CC(=O)O)CCN(CC(=O)NCCCOCCOCCOCCCN*)CCN(CC(=O)O)CC1; NH(1-deoxy-D-glucityl) = OC[C@@H](O)[C@@H](O)[C@H](O)[C@@H](O)CN*; DOTA = O=C(O)CN1CCN(CC(=O)O)CCN(CC(=O)*)CCN(CC(=O)O)CC1; Trp(5-Cl) = N[C@@H](Cc1c[nH]c2ccc(Cl)cc12)C(=O)O; Pyridine(2,6-diCH2) = c1cc(C[*:1])nc(C[*:2])c1; Pro(4R-NH2) = N[C@H]1CN[C@H](C(=O)O)C1; Glutaryl = O=C(CCCC(=O)[*:2])[*:1]; X6 = c1cc(CSCCN[*:2])nc(C[*:1])c1; X7 = c1cc(CSCCN[*:2])cc(C[*:1])c1; Hyp = O=C(O)[C@@H]1C[C@@H](O)CN1; X1 = O=C(CN1CCC(N[*:1])CC1)[*:2]; Suc = O=C(CCC(=O)[*:2])[*:1]; hSer = N[C@@H](CCO)C(=O)O; Api = NC1(C(=O)O)CCNCC1; Thp = NC1(C(=O)O)CCOCC1; Aib = CC(C)(N)C(=O)O

Experiments:
[1] = target: T1, GIPR (CHO-K1-hGIPR cells) (Homo sapiens, UniProt P48546); test: FACS binding assay; conditions: competition with 20 nM GIP-057, 4° C., 1 hour, read-out: pIC50 Category (converted)
T1 construct: host or cells: CHO-K1
T1 sequence (P48546 22-466): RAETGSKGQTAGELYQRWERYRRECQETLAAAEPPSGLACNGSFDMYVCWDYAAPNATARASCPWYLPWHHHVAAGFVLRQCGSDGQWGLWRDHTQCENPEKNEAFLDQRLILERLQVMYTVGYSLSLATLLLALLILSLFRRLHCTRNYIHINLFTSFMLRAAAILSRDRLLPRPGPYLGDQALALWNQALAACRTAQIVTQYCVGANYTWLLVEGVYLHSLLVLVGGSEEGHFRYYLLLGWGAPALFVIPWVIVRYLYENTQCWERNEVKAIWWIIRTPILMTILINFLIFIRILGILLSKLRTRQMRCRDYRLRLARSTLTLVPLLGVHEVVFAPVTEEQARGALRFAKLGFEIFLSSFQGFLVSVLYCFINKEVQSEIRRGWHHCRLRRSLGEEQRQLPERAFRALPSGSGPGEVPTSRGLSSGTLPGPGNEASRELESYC
Outline: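 Read-out: flow cytometric median fluorescence intensity, APC/Cy5 channel, plotted vs peptide conc.; 4PL fit → EC50/pEC50 or IC50/pIC50. Cells: CHO-K1-hGIPR, Accutase-detached, 500.000/mL in PBS + 1% FCS. Detection: APC-streptavidin 1 μg/mL, 30 min, on ice.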

[2] = target: T2, human GIP receptor (bioGIPR) (Homo sapiens, UniProt P48546); test: Surface plasmon resonance (SPR) based binding assay; conditions: Single Cycle Kinetic mode, 25° C.; for t1/2 Category: SPR dissociation half-life; for Kd: SPR, 1:1 Langmuir binding model, read-out: pKD Category (converted)
T2 construct: Biotinylate extracellular of the human GIP receptor (bioGIPR, Proteros biostructures GmbH, lot #02/2b); purchased Proteros biostructures GmbH lot #02/2b
T2 sequence (P48546 22-138 limits assumed): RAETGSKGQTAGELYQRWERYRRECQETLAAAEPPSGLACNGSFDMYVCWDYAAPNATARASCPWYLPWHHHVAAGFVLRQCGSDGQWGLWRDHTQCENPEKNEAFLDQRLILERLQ
Outline: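 Binding was measured at 25 °C by single-cycle kinetics against a reference flow cell, with blank-run and drift correction, after capturing biotinylated GIPR extracellular domain to ~3500 RU. Running buffer: HBST, 0.1% DMSO. A 1:1 Langmuir model gave kinetic rates, KD, t1/2 and pKD.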

Row | Structure (SMILES) | IC50 [1] | t1/2 Category [2] | Kd [2]
1 | CC[C@H](C)[C@@H]1NC(=O)[C@H](CC(C)C)NC(=O)C2(CCN(C(=O)[C@@H](CCC(=O)NC[C@H](O)[C@@H](O)[C@H](O)[C@H](O)CO)NC(=O)CN3CCN(CC(=O)O)CCN(CC(=O)O)CCN(CC(=O)O)CC3)CC2)NC(=O)[C@@H](NC(=O)[C@@H](CC(C)C)NC(=O)[C@H](CCC(=O)O)NC(=O)[C@@H]2C[C@@H](N)CN2C(=O)[C@H](Cc2c[nH]c3ccc(Cl)cc23)NC(=O)[C@H](Cc2c[nH]c3ccccc23)NC(=O)[C@H](CC(=O)O)NC(=O)CN2CCC(NC(=O)CCCC(=O)NC[C@H](O)[C@@H](O)[C@H](O)[C@H](O)CO)CC2)CSCc2cccc(n2)CSC[C@@H](C(=O)NC2CCN(CC(=O)N[C@H](CCC(=O)NC[C@H](O)[C@@H](O)[C@H](O)[C@H](O)CO)C(N)=O)CC2)NC1=O [GIP-008, AGLU-Glutar-APAc-Asp-Trp-5Clw-Tap-Glu-leu-[Cys(2Lut)-Apc(DOTA-glu(AGLU))-Leu-Ile-Cys]-APAc-glu(AGLU)-NH2] ({NH(1-deoxy-D-glucityl)-Glutaryl}-[X1]DW[Trp(5-Cl)][Pro(4R-NH2)]E[dL]C[Api](X12)LIC[X1][dE](NH(1-deoxy-D-glucityl))-NH2; linker 8-12 via Pyridine(2,6-diCH2)) | < 10 nM | A (t1/2 values>15 min) | < 1 nM
2 | CC[C@H](C)[C@@H]1NC(=O)[C@H](CC(C)C)NC(=O)C2(CCOCC2)NC(=O)[C@@H](NC(=O)[C@@H](CC(C)C)NC(=O)[C@H](CCC(=O)O)NC(=O)[C@@H]2C[C@@H](O)CN2C(=O)[C@H](Cc2c[nH]c3ccc(Cl)cc23)NC(=O)[C@H](Cc2c[nH]c3ccccc23)NC(=O)CCC(=O)O)CSCc2cccc(n2)CSC[C@@H](C(=O)NC2CCN(CC(=O)N[C@H](CCC(=O)NC[C@H](O)[C@@H](O)[C@H](O)[C@H](O)CO)C(=O)N[C@@H](CCCCNC(=O)CN3CCN(CC(=O)O)CCN(CC(=O)O)CCN(CC(=O)O)CC3)C(N)=O)CC2)NC1=O [GIP-021, HO-Succinyl-Trp-5Clw-Hyp-Glu-leu-[Cys(2Lut)-Thp-Leu-Ile-Cys]-APAc-glu(AGLU)-Lys(DOTA)-NH2] (Suc-W[Trp(5-Cl)][Hyp]E[dL]C[Thp]LIC[X1][dE](NH(1-deoxy-D-glucityl))K(DOTA)-NH2; linker 6-10 via Pyridine(2,6-diCH2)) | < 10 nM | A (t1/2 values>15 min) | < 1 nM
3 | CC[C@H](C)[C@@H]1NC(=O)[C@H](CC(C)C)NC(=O)C2(CCOCC2)NC(=O)[C@@H](NC(=O)[C@@H](CC(C)C)NC(=O)[C@H](CCC(=O)O)NC(=O)[C@@H]2C[C@@H](O)CN2C(=O)[C@H](Cc2c[nH]c3ccc(Cl)cc23)NC(=O)[C@H](Cc2c[nH]c3ccccc23)NC(=O)[C@H](CC(=O)O)NC(=O)CN2CCC(NC(=O)CN3CCN(CC(=O)O)CCN(CC(=O)O)CCN(CC(=O)O)CC3)CC2)CSCc2cccc(n2)CSCCNC1=O [GIP-103, DOTA-APAc-Asp-Trp-5Clw-Hyp-Glu-leu-[Cys(2Lut)-Thp-Leu-Ile-AET]] ({DOTA}-[X1]DW[Trp(5-Cl)][Hyp]E[dL]C[Thp]LI; linker 8-C via X6) | < 10 nM | A (t1/2 values>15 min) | < 1 nM
4 | CC[C@H](C)[C@@H]1NC(=O)[C@H](CC(C)C)NC(=O)C2(CCOCC2)NC(=O)[C@@H](NC(=O)[C@@H](CC(C)C)NC(=O)[C@H](CCO)NC(=O)[C@@H]2C[C@@H](O)CN2C(=O)[C@H](Cc2c[nH]c3ccc(Cl)cc23)NC(=O)[C@H](Cc2c[nH]c3ccccc23)NC(=O)[C@H](CC(=O)O)NC(C)=O)CSCc2cccc(n2)CSC[C@@H](C(N)=O)NC1=O [GIP-194, Ac-Asp-Trp-5Clw-Hyp-Hse-leu-[Cys(2Lut)-Thp-Leu-Ile-Cys]-NH2] (Ac-DW[Trp(5-Cl)][Hyp][hSer][dL]C[Thp]LIC-NH2; linker 7-11 via Pyridine(2,6-diCH2)) | < 10 nM | A (t1/2 values>15 min) | < 1 nM
5 | CC[C@H](C)[C@@H]1NC(=O)[C@H](CC(C)C)NC(=O)C(C)(C)NC(=O)[C@@H](NC(=O)[C@@H](CC(C)C)NC(=O)[C@H](CCC(=O)O)NC(=O)[C@@H]2CCCN2C(=O)[C@H](Cc2c[nH]c3ccc(Cl)cc23)NC(=O)[C@H](Cc2c[nH]c3ccccc23)NC(=O)[C@H](CC(=O)O)NC(=O)CCC(=O)NCCCOCCOCCOCCCNC(=O)CN2CCN(CC(=O)O)CCN(CC(=O)O)CCN(CC(=O)O)CC2)CSCc2cccc(c2)CSCCNC1=O [GIP-077, DOTA-Ttds-Asp-Trp-5Clw-Pro-Glu-leu-[Cys(3MeBn)-Aib-Leu-Ile-AET]] ({X3-Suc}-DW[Trp(5-Cl)]PE[dL]C[Aib]LI; linker 7-C via X7) | < 10 nM |  | < 1 nM
